The results in this text go back to patent US20190030053A1, “COMPOSITION FOR INCREASING EXPRESSION OF PGC-1alpha” (BENEBIOSIS CO., LTD., priority 2016, published 2019).

For assay [1], the system named is PGC-1α and related genes. The assay can be described thus: Gene expression in brain and hippocampus of Alzheimer's disease models. The format is in vivo, mouse. Particulars: 3×Tg mice, oral 0.1 mg/kg/day, 10 weeks. The text has this: In order to investigate the changes in gene expression and cognitive ability by the treatment with SL (3′-SL & 6′-SL) compositions in Alzheimer's brain disease models, 6-week-old mice were purchased from Central Lab Animal (Korea). Water was freely accessible, and a commercially available pellet feed (Dooyeul Biotech, Korea) was given for two weeks. At 8 weeks of age, the mice were divided into three groups (composed of eight mice for each group): Eight 8-week-old male c57/BL6 mice (normal mice; initial body weight, average 35.6±3.3 g) treated with a normal diet were used for a control group. […]
(§1) Sialyllactose or DW was orally administered daily. […] The dietary intake and body weight change were measured every 5 days. […]
The gene expression changes by the treatment with SL (3′-SL & 6′-SL) compositions were quantitatively compared in two main organs (brain and hippocampus) associated with bran diseases. […] RNA was extracted by TRIzol agent (Invitrogen). cDNA was synthesized by using RNA, which has been extracted as above and quantified, and a reverse transcription system (Promega, USA). The expression patterns of PGC-1α and related genes were measured by using pre-designed primers and probes (Applied Biosystems; PGC-1α, Mm00447181_m1, GAPDH, and Mm99999915_q1) for the synthesized cDNA and analysis targets (Fndc5, PGC-1α, Erra, UCP1, BDNF, SOD2, and GPX1). […]

Assay [2] relates to PGC-1α and related genes. Description: Abdominal fat gene expression in high-fat diet ob mouse models. It is filed as in vivo. Particulars: ob mice, oral 0.1 mg/kg/day, 10 weeks. On the procedure:
In order to investigate gene expression changes and topical fat removal effects by treatment with SL (3′-SL & 6′-SL) composition in mouse models, 4-week-old male ob mouse (C57BL/6J-ob/ob) models were purchased from Central Lab Animal (Korea). Water was freely accessible, and a high-fat diet (Rodent Diet with 60 kcal % fat) was supplied for two weeks. […]
as §1
Gene expression changes by the treatment with SL (3′-SL & 6′-SL) compositions were quantitatively compared in the abdominal part. RNA was extracted by TRIzol agent (Invitrogen). cDNA was synthesized by using RNA, which has been extracted as above and quantified, and a reverse transcription system (Promega, USA). The expression patterns of PGC-1α and related genes were measured by using pre-designed primers and probes (Applied Biosystems; PGC-1α, Mm00447181_m1, GAPDH, and Mm99999915_q1) for the synthesized cDNA and analysis targets (Fndc5, PGC-1α, Erra, UCP1, SOD2, and GPX1). […]

Assay [3] relates to mouse aortic smooth muscle cells (MASMs). Description: Mitochondrial superoxide production (MitoSOX Red) in MASMs of aging stimulation model mice. Particulars: MASMs from aging stimulation model mice; SL added to culture liquid. The format is cell-based. Here is the method:
For the measurement of mitochondrial superoxide production, mitochondrial ROS was measured using MitoSOX Red (mitochondrial superoxide fluorescent marker). MASMs were extracted, and incubated with MitoSOX (4 μM) in the dark room at 37° C. for 20 minutes. The MitoSOX fluorescence was quantified by the cell fluorescence intensity read using a fluorescent plate reader (480 nm excitation/580 nm emission) (FIG. 17b).
In FIGS. 17a and 17b, MASMs were extracted from the aging stimulation model mouse control group, and the SL (3′-SL & 6′-SL) compositions were added to the culture liquid to conduct comparison.
FIGS. 17a and 17b show the measurement results of intercellular H2O2 (ROS values) (FIG. 17a) and the measurement results of mitochondrial superoxide production (FIG. 17b).

`CC(=O)N[C@H]1[C@H]([C@H](O)[C@H](O)CO)O[C@@](OC[C@H]2O[C@@H](O[C@H]3[C@H](O)[C@@H](O)[C@H](O)O[C@@H]3CO)[C@H](O)[C@@H](O)[C@H]2O)(C(=O)O)C[C@@H]1O` [6′-SL, α-NeuNAc-(2→6)-β-D-Gal-(1→4)-D-Glc]: in the assay with PGC-1α and related genes [1], the “expression levels of PGC-1α and related genes vs SL non-administration (Alzheimer's disease model) group” value is recorded as “very high”; the “expression levels of PGC-1α and related genes vs normal control group” value is recorded as “somewhat lower”. The “expression levels of analysis targets (Fndc5, PGC-1α, Erra, UCP1, SOD2, GPX1) in abdominal fat vs negative control” value in the assay with PGC-1α and related genes [2] is on record as “about two-time significant increases”. In addition, the mitochondrial superoxide production result in assay [3] is “inhibited the mitochondrial superoxide production”.
As for `CC(=O)N[C@H]1[C@H]([C@H](O)[C@H](O)CO)O[C@@](O[C@H]2[C@@H](O)[C@@H](CO)O[C@@H](O[C@H]3[C@H](O)[C@@H](O)C(O)O[C@@H]3CO)[C@@H]2O)(C(=O)O)C[C@@H]1O` (stereo partly drawn) [3′-SL, α-NeuNAc-(2→3)-β-D-Gal-(1→4)-D-Glc], the “expression levels of PGC-1α and related genes vs SL non-administration (Alzheimer's disease model) group” value in the assay on PGC-1α and related genes [1] is given as “relatively low compared with 6′-SL”. The “expression levels of analysis targets (Fndc5, PGC-1α, Erra, UCP1, SOD2, GPX1) in abdominal fat vs negative control” value with PGC-1α and related genes [2] is “relatively low compared with 6′-SL”. In addition, the mitochondrial superoxide production result in assay [3] is listed as “inhibited the mitochondrial superoxide production”.
